# Reference: patent US4442108A, “Hydrogenated isoquinolines and peripheral vascular disease treating compositions thereof” (Laboratoires Sobio S.A. of Immeuble Perisud, priority 1981, dated 1984)
# Structures can show the parent of a compound that is named as a salt. Where two headings read alike, the source gives them in different places.
# Assays:
# [1] = Acute toxicity, LD50 in mice (method of Litchfield and Wilcoxon), intravenous route; settings: in vivo
# Protocol: LD50 values in mice for several compounds of the invention were obtained by the method of Litchfield and Wilcoxon (J. Pharmacol. (1949), 96.99) after the administration of the test compound by intravenous route (i.v.) in the mouse (CD, males 18-24 g) in a volume of 0.40 ml/20 g of body weight. The mortality is noted 7 days after administration.
# [2] = system: dogs anaesthetized with chloralose; test: Cardiovascular activity in anaesthetized dogs; assay type: in vivo, dog; settings: i.v., 1/15 to 1/30 of the mouse i.v. LD50
# Protocol: The following parameters were recorded in dogs anaesthetized with chloralose, and under artificial respiration:
# left ventricular contractile force.
# The compounds tested were injected intravenously in a dose of from (1/15) to (1/30) of the LD50 (i.v.) previoulsy determined in mice.
# [3] = system: isolated ileum of the guinea pig; test: Spasmolytic activity in vitro, barium chloride contraction of isolated ileum; assay type: cell-based; settings: Cavia porcellus, Tyrode liquid, 37° C., barium chloride as contracting agent, product added 30 seconds before, read-out: EC50 (concentration required to cause inhibition of contraction in 50% of the population)
# Protocol: The tests are carried out on isolated ileum of the guinea pig surviving in Tyrode liquid, aerated and maintained at 37° C. The products are added 30 seconds before affusion of barium chloride used as contracting agent. The concentrations required to cause inhibition of contraction in 50% of the population (EC50) was given in table II compared with papaverine.
# [4] = mouse, read-out: LD50 and limits (p = 0.05)
# [5] = mouse CD males, i.v., 0.40 ml/20 g, mortality noted 7 days after administration, limits p = 0.05 in brackets
SMILES,"LD50 at 168 h [1, 4] [mg/kg]",effect on blood pressure (mean aortic pressure) [2],effect on left ventricular contractile force [2],EC50 [3] [µM],"LD50 at 168 h [1, 5] [mg/kg]",effect on cardiac frequency [2]
"CCOc1cc2c(cc1OCC)C(Cc1ccc(OC(C)C)c(OC(C)C)c1)=NCC2 [Example 1, 6,7-Diethoxy-1-(3'4'-diisopropoxybenzyl-3,4-dihydroisoquinoline hydrochloride]",19,transient hypotension,reduction in the amplitude of ventricular contraction,11,–,–
"CCOc1ccc(CC2=NCCc3cc(OC(C)C)c(OC(C)C)cc32)cc1OCC [Example 2, 1-(3'4'-Diethoxybenzyl)-6,7-diisopropoxy-3,4-dihydroisoquinoline hydrochloride]",8.2,transient hypotension,reduction in the amplitude of ventricular contraction,4.2,–,–
"CCCOc1ccc(CC2=NCCc3cc(OCC)c(OCC)cc32)cc1OCCC.Cl [Example 3, 6,7-Diethoxy-1-(3',4'-di-n-propoxybenzyl)-3,4-dihydroisoquinoline hydrochloride]",–,transient hypotension,reduction in the amplitude of ventricular contraction,3.2,17.5,–
"CCCOc1cc2c(cc1OCCC)C(Cc1ccc(OCC)c(OCC)c1)=NCC2.Cl [Example 4, 1-(3',4'-Diethoxybenzyl)-6,7-di-n-propoxy-3,4-dihydroisoquinoline hydrochloride]",–,transient hypotension,reduction in the amplitude of ventricular contraction,3.7,13.5,–
"CCOc1ccc(CC2NCCc3cc(OC(C)C)c(OC(C)C)cc32)cc1OCC.Cl (centres unmarked) [Example 10, 1-(3',4'-Diethoxybenzyl)-6,7-diisopropoxy-1,2,3,4-tetrahydroisoquinoline hydrochloride]",–,transient hypotension,reduction in the amplitude of ventricular contraction,10,19,–
"CCOc1cc2c(cc1OCC)C(Cc1ccc(OC(C)C)c(OC(C)C)c1)NCC2 (centres unmarked) [Example 11, 6,7-Diethoxy-1-(3',4'-diisopropoxybenzyl)-1,2,3,4-tetrahydroisoquinoline hydrochloride]",–,–,–,60,22,–
"COc1ccc(Cc2nccc3cc(OC)c(OC)cc23)cc1OC [Papauerine HCl, reference compound]",–,–,–,980,–,–
"COc1ccc(Cc2nccc3cc(OC)c(OC)cc23)cc1OC [papaverine, 1-(3',4'-dimethoxybenzyl)-6,7-dimethoxy isoquinoline, reference compound]",–,transient hypotension,increase of the ventricular contractile force,–,–,tachycardia
